Test results published in PubChem BioAssay AID2060485 (Molecular Pharmacology Branch, DTP, NCI, 2025).

Tested on: A375 multi-cell spheroids with HUVEC/MSC, viability
Experiment: Anticancer human tumor A375 cell line growth inhibition [GQUAD];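 also: spheroids exposed to compounds for seven days before readout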
Conditions: for IC50: curve of first compound; for viability, T/C: stronger effect = lower value
Procedure, shortened: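 Multi-cell-type spheroids of tumor cells with HUVEC and mesenchymal stem cells, treated with drug combinations. Concentrations descend in half-log steps from near clinical Cmax, or from 10 microM where Cmax is unknown; viability read-out.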

[1] = second compound 0.0316 µM, first compound 0.0316 µM
[2] = second compound 0.0316 µM, first compound 0.1 µM
[3] = second compound 0.0316 µM, first compound 0.316 µM
[4] = second compound 0.0316 µM, first compound 1 µM
[5] = second compound 0.0316 µM, first compound 3.16 µM
[6] = second compound 0.0316 µM, first compound 10 µM
[7] = second compound 0.1 µM, first compound 0.0316 µM
[8] = second compound 0.1 µM, first compound 0.1 µM
[9] = second compound 0.1 µM, first compound 0.316 µM
[10] = second compound 0.1 µM, first compound 1 µM
[11] = second compound 0.1 µM, first compound 3.16 µM
[12] = second compound 0.1 µM, first compound 10 µM
[13] = second compound 0.316 µM, first compound 0.0316 µM
[14] = second compound 0.316 µM, first compound 0.1 µM
[15] = second compound 0.316 µM, first compound 0.316 µM
[16] = second compound 0.316 µM, first compound 1 µM
[17] = second compound 0.316 µM, first compound 3.16 µM
[18] = second compound 0.316 µM, first compound 10 µM
[19] = second compound 1 µM, first compound 0.0316 µM
[20] = second compound 1 µM, first compound 0.1 µM
[21] = second compound 1 µM, first compound 0.316 µM
[22] = second compound 1 µM, first compound 1 µM
[23] = second compound 1 µM, first compound 3.16 µM
[24] = second compound 1 µM, first compound 10 µM
[25] = second compound 3.16 µM, first compound 0.0316 µM
[26] = second compound 3.16 µM, first compound 0.1 µM
[27] = second compound 3.16 µM, first compound 0.316 µM
[28] = second compound 3.16 µM, first compound 1 µM
[29] = second compound 3.16 µM, first compound 3.16 µM
[30] = second compound 3.16 µM, first compound 10 µM
[31] = second compound 10 µM, first compound 0.0316 µM
[32] = second compound 10 µM, first compound 0.1 µM
[33] = second compound 10 µM, first compound 0.316 µM
[34] = second compound 10 µM, first compound 1 µM
[35] = second compound 10 µM, first compound 3.16 µM
[36] = second compound 10 µM, first compound 10 µM

COc1cc(C2c3cc4c(cc3C(OC3OC5COC(C)OC5C(O)C3O)C3COC(=O)C23)OCO4)cc(OC)c1O (stereo unspecified) + Cc1cnc(CNC(=O)c2c(=O)c3ccc(N4CCCN(C)CC4)nc3n3c2sc2ccccc23)cn1
IC50 (second compound 0.0316 µM): 656 nM
IC50 (second compound 0.1 µM): 213 nM
IC50 (second compound 0.316 µM): < 31.6 nM
IC50 (second compound 1 µM): < 31.6 nM
IC50 (second compound 3.16 µM): < 31.6 nM
IC50 (second compound 10 µM): < 31.6 nM
viability, T/C [1]: 110%
viability, T/C [2]: 90.6%
viability, T/C [3]: 65.6%
viability, T/C [4]: 40.7%
viability, T/C [5]: 27.4%
viability, T/C [6]: 20.2%
viability, T/C [7]: 73.6%
viability, T/C [8]: 59.8%
viability, T/C [9]: 43.6%
viability, T/C [10]: 33.5%
viability, T/C [11]: 25.8%
viability, T/C [12]: 14.7%
viability, T/C [13]: 48.3%
viability, T/C [14]: 50.2%
viability, T/C [15]: 37.8%
viability, T/C [16]: 32.4%
viability, T/C [17]: 22.1%
viability, T/C [18]: 14.3%
viability, T/C [19]: 40.1%
viability, T/C [20]: 38.6%
viability, T/C [21]: 30.6%
viability, T/C [22]: 30.7%
viability, T/C [23]: 22.3%
viability, T/C [24]: 15.3%
viability, T/C [25]: 34%
viability, T/C [26]: 32.5%
viability, T/C [27]: 31%
viability, T/C [28]: 26%
viability, T/C [29]: 23.4%
viability, T/C [30]: 13.9%
viability, T/C [31]: 29.2%
viability, T/C [32]: 28.1%
viability, T/C [33]: 31.8%
viability, T/C [34]: 27.3%
viability, T/C [35]: 21%
viability, T/C [36]: 13.4%

Cc1cccc(N(C)C(=O)C2C(O)CCN2c2nc(C)cc(C(F)(F)F)c2C#N)c1 (stereo unspecified) + Cc1cnc(CNC(=O)c2c(=O)c3ccc(N4CCCN(C)CC4)nc3n3c2sc2ccccc23)cn1
IC50 (second compound 0.0316 µM): > 10000 nM
IC50 (second compound 0.1 µM): > 10000 nM
IC50 (second compound 0.316 µM): > 10000 nM
IC50 (second compound 1 µM): < 31.6 nM
IC50 (second compound 3.16 µM): < 31.6 nM
IC50 (second compound 10 µM): < 31.6 nM
viability, T/C [1]: 104%
viability, T/C [2]: 89.9%
viability, T/C [3]: 104%
viability, T/C [4]: 107%
viability, T/C [5]: 99.3%
viability, T/C [6]: 122%
viability, T/C [7]: 75.8%
viability, T/C [8]: 69.7%
viability, T/C [9]: 77.2%
viability, T/C [10]: 76%
viability, T/C [11]: 78.8%
viability, T/C [12]: 71.8%
viability, T/C [13]: 55.6%
viability, T/C [14]: 52%
viability, T/C [15]: 50.4%
viability, T/C [16]: 52.2%
viability, T/C [17]: 63.3%
viability, T/C [18]: 60.9%
viability, T/C [19]: 42.9%
viability, T/C [20]: 41.6%
viability, T/C [21]: 42.8%
viability, T/C [22]: 41.8%
viability, T/C [23]: 49.2%
viability, T/C [24]: 38.4%
viability, T/C [25]: 30.5%
viability, T/C [26]: 31.4%
viability, T/C [27]: 41%
viability, T/C [28]: 31.8%
viability, T/C [29]: 35.6%
viability, T/C [30]: 38.4%
viability, T/C [31]: 31.8%
viability, T/C [32]: 29.8%
viability, T/C [33]: 33.9%
viability, T/C [34]: 33.1%
viability, T/C [35]: 35.4%
viability, T/C [36]: 32.1%

Cn1ncnc1[C@H]1c2n[nH]c(=O)c3cc(F)cc(c23)N[C@@H]1c1ccc(F)cc1 + Cc1cnc(CNC(=O)c2c(=O)c3ccc(N4CCCN(C)CC4)nc3n3c2sc2ccccc23)cn1
IC50 (second compound 0.0316 µM): > 316 nM
IC50 (second compound 0.1 µM): > 316 nM
IC50 (second compound 0.316 µM): 40.3 nM
IC50 (second compound 1 µM): < 0.999 nM
IC50 (second compound 3.16 µM): < 0.999 nM
IC50 (second compound 10 µM): < 0.999 nM
viability, T/C (second compound 0.0316 µM, first compound 0.000999 µM): 100%
viability, T/C (second compound 0.0316 µM, first compound 0.00316 µM): 98.9%
viability, T/C (second compound 0.0316 µM, first compound 0.00999 µM): 107%
viability, T/C [1]: 97.4%
viability, T/C (second compound 0.0316 µM, first compound 0.0999 µM): 75.6%
viability, T/C [3]: 90.6%
viability, T/C (second compound 0.1 µM, first compound 0.000999 µM): 98.7%
viability, T/C (second compound 0.1 µM, first compound 0.00316 µM): 73.7%
viability, T/C (second compound 0.1 µM, first compound 0.00999 µM): 72.2%
viability, T/C [7]: 68.9%
viability, T/C (second compound 0.1 µM, first compound 0.0999 µM): 55.7%
viability, T/C [9]: 60.5%
viability, T/C (second compound 0.316 µM, first compound 0.000999 µM): 55.8%
viability, T/C (second compound 0.316 µM, first compound 0.00316 µM): 55.5%
viability, T/C (second compound 0.316 µM, first compound 0.00999 µM): 49.4%
viability, T/C [13]: 53.8%
viability, T/C (second compound 0.316 µM, first compound 0.0999 µM): 46.6%
viability, T/C [15]: 43%
viability, T/C (second compound 1 µM, first compound 0.000999 µM): 39%
viability, T/C (second compound 1 µM, first compound 0.00316 µM): 47.1%
viability, T/C (second compound 1 µM, first compound 0.00999 µM): 44.3%
viability, T/C [19]: 41.8%
viability, T/C (second compound 1 µM, first compound 0.0999 µM): 41.4%
viability, T/C [21]: 44.3%
viability, T/C (second compound 3.16 µM, first compound 0.000999 µM): 35.9%
viability, T/C (second compound 3.16 µM, first compound 0.00316 µM): 43.8%
viability, T/C (second compound 3.16 µM, first compound 0.00999 µM): 34.2%
viability, T/C [25]: 30.3%
viability, T/C (second compound 3.16 µM, first compound 0.0999 µM): 34.2%
viability, T/C [27]: 32.7%
viability, T/C (second compound 10 µM, first compound 0.000999 µM): 29.1%
viability, T/C (second compound 10 µM, first compound 0.00316 µM): 32.7%
viability, T/C (second compound 10 µM, first compound 0.00999 µM): 33%
viability, T/C [31]: 32.4%
viability, T/C (second compound 10 µM, first compound 0.0999 µM): 36.2%
viability, T/C [33]: 32.3%
